For eleven compounds, GI50 and TGI results are on record in PubChem BioAssay (NCI).

Some test systems named below: SN12C renal; SF-295 CNS; U251 CNS; UO-31 renal; LOX IMVI melanoma; OVCAR-4 ovarian; MDA-MB-435; HCC-2998 colon; HCT-116 colon; HL-60(TB) leukemia.
Assay in all cases: NCI-60 cell line screen, 48 h

“And” between values parts separate entries of the source, which are not always exact repeats. Equal entries are not always repeated.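 Method: 48-hour compound exposure of cells in 96-well plates, five concentrations, linear interpolation of endpoints. GI50 = concentration required for 50% inhibition of growth. At the TGI there is no net growth.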 Where a SMILES comes first, the peptide text is derived from it. The star is where a group is joined. Boc = CC(C)(C)OC(=O)* Some results are limits rather than exact numbers.

On to `COc1ccc(C(O)(CCC(C)C)C(CN2CCOCC2)c2ccc(Cl)cc2)cc1` (stereo not drawn), for which the GI50 with SN12C renal was 13.4 µM; with SF-295 CNS, 13.4 µM; with U251 CNS, 12.3 µM; in the experiment with UO-31 renal, 11.3 µM; in the experiment with LOX IMVI melanoma, 14.5 µM; with OVCAR-4 ovarian it was 12.1 µM. The GI50 in the experiment with MDA-MB-435 is 14.9 µM; in the experiment with HCC-2998 colon it was 10.7 µM; in the experiment with HCT-116 colon, 4.68 µM; with HL-60(TB) leukemia, 14.8 µM. Moreover, the TGI is 31.2 µM in the experiment on SN12C renal; 29.8 µM with SF-295 CNS; 26.3 µM with U251 CNS; 25.9 µM in the experiment with UO-31 renal; 28 µM in the experiment with LOX IMVI melanoma; 27.4 µM with OVCAR-4 ovarian. Further, the TGI was found to be 37.3 µM in the experiment with MDA-MB-435, 24 µM in the experiment with HCC-2998 colon, 19.1 µM in the experiment with HCT-116 colon and 39.1 µM in the experiment with HL-60(TB) leukemia.

With `CS(=O)(=O)Nc1cc(-c2ccc3ncnc(Nc4c(Cl)ccc5c4OCO5)c3c2)cnc1Cl`, the GI50 with SN12C renal was 0.202 µM; in the experiment on SF-295 CNS, 0.171 µM; with U251 CNS, 0.331 µM; with UO-31 renal it was 0.0403 µM; in the experiment on LOX IMVI melanoma it was 0.172 µM; in the experiment with OVCAR-4 ovarian it was 0.348 µM. Further, the GI50 with MDA-MB-435 was 0.251 µM; with HCC-2998 colon it was 0.262 µM; in the experiment on HCT-116 colon it was 0.269 µM; with HL-60(TB) leukemia it was 0.159 µM. For the same compound, the TGI with SN12C renal was > 100 µM; with SF-295 CNS, 1.1 µM; with U251 CNS, 2.63 µM; in the experiment on UO-31 renal, 0.938 µM; in the experiment on LOX IMVI melanoma it was 1.08 µM; in the experiment with OVCAR-4 ovarian, 4.45 µM. Besides, the TGI in the experiment on MDA-MB-435 is 1.63 µM; in the experiment with HCC-2998 colon, 1.51 µM; in the experiment with HCT-116 colon, 1.97 µM; with HL-60(TB) leukemia it was 0.92 µM.

Regarding `CN(C)c1ccc(N=Nc2ccccn2)c(O)c1`, the GI50 in the experiment with SN12C renal is 0.396 µM; in the experiment with SF-295 CNS, 0.359 µM; with U251 CNS it was 0.258 µM; with UO-31 renal, 0.215 µM; in the experiment with LOX IMVI melanoma, 0.258 µM; in the experiment on OVCAR-4 ovarian, 0.164 µM. Besides, the GI50 is 0.556 µM in the experiment on MDA-MB-435, 0.376 µM with HCC-2998 colon, 0.254 µM in the experiment on HCT-116 colon and 0.228 µM in the experiment with HL-60(TB) leukemia. The TGI with SN12C renal is > 100 µM; in the experiment with SF-295 CNS, > 100 µM; in the experiment with U251 CNS it was > 100 µM; with LOX IMVI melanoma it was > 100 µM; in the experiment with OVCAR-4 ovarian, 24.6 µM; with MDA-MB-435, > 100 µM. The TGI with HCC-2998 colon is > 100 µM; in the experiment with HCT-116 colon, > 71.7 µM; in the experiment with HL-60(TB) leukemia, 1.46 µM.

For the compound `COc1ccc2c(c1)c[n+](C)c1c3cc(OC)c(OC)cc3ccc21`, the TGI was 3.53 µM and 8.51 µM in the experiment with SN12C renal; 17.8 µM in the experiment on SF-295 CNS; 2.3 µM and 5.45 µM in the experiment with U251 CNS; 5.13 µM and 22.5 µM in the experiment with UO-31 renal; 2.65 µM and 4.96 µM in the experiment with LOX IMVI melanoma; 20.4 µM in the experiment on OVCAR-4 ovarian. Besides, the TGI is 2.98 µM and 20 µM with MDA-MB-435; 3.71 µM and 19.9 µM with HCC-2998 colon; 2.32 µM and 10 µM in the experiment on HCT-116 colon; 3.48 µM and 16.9 µM with HL-60(TB) leukemia. Also, the GI50 is 5.06 µM with SF-295 CNS; 2.22 µM and 9.28 µM in the experiment with UO-31 renal; 5.48 µM in the experiment on OVCAR-4 ovarian; 1.51 µM and 5.1 µM in the experiment with MDA-MB-435; 1.86 µM and 7.34 µM with HCC-2998 colon; 1.08 µM and 2.48 µM in the experiment on HCT-116 colon. In addition, the GI50 with HL-60(TB) leukemia is 0.467 µM and 1.85 µM.

For the compound `C[C@H](Nc1cc(Cl)nc2c1cnn2[C@@H]1O[C@H](COP(=O)(O)CP(=O)(O)O)[C@@H](O)[C@H]1O)c1ccccc1F`, the GI50 in the experiment with SN12C renal, in the experiment with SF-295 CNS, in the experiment on U251 CNS, with UO-31 renal, in the experiment with LOX IMVI melanoma and in the experiment on OVCAR-4 ovarian was > 100 µM each time. For the same compound, the GI50 in the experiment on MDA-MB-435, with HCC-2998 colon, in the experiment with HCT-116 colon and in the experiment on HL-60(TB) leukemia was > 100 µM in each case. Further, the TGI in the experiment on SN12C renal, in the experiment with SF-295 CNS, in the experiment on U251 CNS, with UO-31 renal, in the experiment on LOX IMVI melanoma and with OVCAR-4 ovarian was > 100 µM each time. Also, the TGI with MDA-MB-435, with HCC-2998 colon, in the experiment on HCT-116 colon and in the experiment with HL-60(TB) leukemia was > 100 µM throughout.

Consider `CN(C)C/C=C/C(=O)Nc1cc2c(Nc3ccc(F)c(Cl)c3)ncnc2cc1O[C@H]1CCOC1`, for which the GI50 was 1.46 µM and 0.576 µM in the experiment on SN12C renal; 4.93 µM and 3.32 µM in the experiment on SF-295 CNS; 0.58 µM and 1.35 µM with U251 CNS; 0.762 µM and 0.322 µM in the experiment on UO-31 renal; 1.02 µM and 1.38 µM in the experiment with LOX IMVI melanoma; 0.915 µM and 1.27 µM in the experiment with OVCAR-4 ovarian. The GI50 in the experiment with MDA-MB-435 is 0.603 µM and 0.882 µM; in the experiment on HCC-2998 colon, 1.14 µM and 1.58 µM; in the experiment with HCT-116 colon it was 0.448 µM and 0.679 µM; in the experiment with HL-60(TB) leukemia, 1.45 µM and 0.599 µM. In addition, the TGI in the experiment on SN12C renal is 14.8 µM and > 10 µM; with SF-295 CNS it was 20.9 µM and > 10 µM; with U251 CNS, 2.96 µM and > 10 µM; with UO-31 renal, 16.4 µM and > 10 µM; in the experiment with LOX IMVI melanoma, 3.62 µM and > 5.51 µM; in the experiment on OVCAR-4 ovarian, 12.3 µM and > 10 µM. Further, the TGI with MDA-MB-435 is 7.37 µM and > 5.68 µM; in the experiment on HCC-2998 colon, 3.14 µM and > 9.22 µM; in the experiment on HCT-116 colon it was 1.93 µM and > 5.87 µM; with HL-60(TB) leukemia, 5.03 µM and 3.75 µM.

In the case of `CN(C)c1ncnc2c1ncn2CCn1cnc2c(N(C)C)ncnc21`, the TGI in the experiment on SN12C renal, in the experiment on SF-295 CNS, in the experiment with U251 CNS, in the experiment with UO-31 renal, with LOX IMVI melanoma and in the experiment on OVCAR-4 ovarian was > 100 µM each time. The TGI in the experiment with MDA-MB-435, in the experiment on HCC-2998 colon, with HCT-116 colon and in the experiment with HL-60(TB) leukemia was > 100 µM each time.

Regarding `Cc1ccc(Nc2oc(-c3ccccc3)nc2[P+](c2ccccc2)(c2ccccc2)c2ccccc2)cc1`, the GI50 in the experiment on SN12C renal is 0.888 µM; in the experiment on SF-295 CNS it was 1.24 µM; with U251 CNS it was 0.538 µM; in the experiment with UO-31 renal, 0.44 µM; with LOX IMVI melanoma, 0.833 µM; in the experiment on OVCAR-4 ovarian, 0.357 µM. For the same compound, the GI50 was 0.606 µM in the experiment with MDA-MB-435, 1.03 µM in the experiment on HCC-2998 colon, 0.377 µM in the experiment with HCT-116 colon and 0.425 µM with HL-60(TB) leukemia. Moreover, the TGI in the experiment on SN12C renal is 2.51 µM; in the experiment on SF-295 CNS, 2.6 µM; in the experiment with U251 CNS, 1.71 µM; in the experiment on UO-31 renal, 1.65 µM; in the experiment on LOX IMVI melanoma it was 2.11 µM; in the experiment on OVCAR-4 ovarian it was 2.07 µM. The TGI in the experiment on MDA-MB-435 is 1.97 µM; with HCC-2998 colon it was 2.4 µM; in the experiment on HCT-116 colon, 1.39 µM; in the experiment with HL-60(TB) leukemia, 1.39 µM.

Regarding `COC(=O)C(C)NC(=O)C(CCSC)NC(=O)C(Cc1ccccc1)NC(=O)OC(C)(C)C` (stereo not drawn) (Boc-Phe-Met-Ala-OMe; configuration not given here), the GI50 is 25.4 mg/L with SN12C renal; 22.6 mg/L with U251 CNS; 20.3 mg/L in the experiment with LOX IMVI melanoma; 39.2 mg/L in the experiment with MDA-MB-435; 20.1 mg/L in the experiment with HCC-2998 colon; 17.1 mg/L in the experiment with HCT-116 colon. Further, in the experiment on HL-60(TB) leukemia, the GI50 was 30.2 mg/L. The TGI in the experiment on SN12C renal is 71.8 µg/mL and > 100 µM; with SF-295 CNS, > 100 µM; in the experiment with U251 CNS, 67 µg/mL and > 100 µM; with UO-31 renal, > 100 µM; in the experiment with LOX IMVI melanoma, 43 µg/mL and > 100 µM; in the experiment with OVCAR-4 ovarian, > 100 µM. For the same compound, the TGI with MDA-MB-435 was > 100 µM; in the experiment with HCC-2998 colon, 36.4 µg/mL and > 100 µM; with HL-60(TB) leukemia, 64.6 µg/mL and > 100 µM.

Take `COC(=O)c1ccc2c(c1)/C(=C\c1cc(Br)c(O)c(Br)c1)C(=O)N2`: the GI50 with SN12C renal was 10 µM; in the experiment with SF-295 CNS, 5.1 µM; in the experiment on U251 CNS it was 6.59 µM; in the experiment on UO-31 renal it was 6.84 µM; with LOX IMVI melanoma it was 4.13 µM; with OVCAR-4 ovarian, 7.96 µM. Also, the GI50 is 3.1 µM in the experiment on MDA-MB-435, 8.23 µM in the experiment on HCC-2998 colon, 8.29 µM in the experiment on HCT-116 colon and 4.97 µM in the experiment with HL-60(TB) leukemia. Also, the TGI is > 25 µM in the experiment on SN12C renal; > 24 µM with SF-295 CNS; > 25 µM in the experiment with U251 CNS; > 25 µM in the experiment on UO-31 renal; > 25 µM in the experiment with LOX IMVI melanoma; > 25 µM in the experiment with OVCAR-4 ovarian. In addition, the TGI with MDA-MB-435 was > 19.4 µM; in the experiment on HCC-2998 colon, > 25 µM; in the experiment with HCT-116 colon, > 25 µM; in the experiment with HL-60(TB) leukemia, 14.6 µM.

Turning to `CC1(Br)Cc2ccccc2C1=O` (stereo not drawn), the GI50 with SN12C renal is 4.55 µM; in the experiment with LOX IMVI melanoma it was 0.533 µM; in the experiment on OVCAR-4 ovarian, 2.14 µM; with MDA-MB-435 it was 2.14 µM; in the experiment with HCT-116 colon, 2.01 µM; in the experiment on HL-60(TB) leukemia, 0.495 µM. Moreover, the TGI in the experiment on SN12C renal stood at 14.8 µM; in the experiment with SF-295 CNS, 36.2 µM; in the experiment on U251 CNS, 18.7 µM; in the experiment on UO-31 renal it was 20.2 µM; in the experiment with LOX IMVI melanoma, 2.41 µM; with OVCAR-4 ovarian it was 8.43 µM. Moreover, the TGI was 12.4 µM in the experiment on MDA-MB-435; > 100 µM in the experiment with HCC-2998 colon; 5.02 µM in the experiment on HCT-116 colon; 6.67 µM and 2.35 µM in the experiment with HL-60(TB) leukemia.
